Source: ChEMBL document CHEMBL1201862, “PubChem BioAssay data set” (2004)
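In this assay, cells in 96-well plates receive the compound at five concentrations for 48 hours. Endpoints are linearly interpolated between the surrounding concentrations. GI50: concentration for 50% inhibition of growth.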 The source made the active and inactive calls. No stated cut-off is given here; in the data, active = GI50 up to about 1.1 µM and inactive = higher.

How the values were obtained:
Experiment in all cases: growth of human tumour cells (NCI), 48 h
[1] = test system: MCF7
[2] = test system: NCI-H522
[3] = test system: SK-OV-3
[4] = test system: MDA-MB-435
[5] = test system: HT-29
[6] = test system: SF-295
[7] = test system: Hs-578T
[8] = test system: CAKI-1
[9] = test system: HCC 2998
[10] = test system: NCI/ADR-RES
[11] = test system: 786-0
[12] = test system: MOLT-4
[13] = test system: RPMI-8226
[14] = test system: SF-539
[15] = test system: HOP-92
[16] = test system: U-251
[17] = test system: SR
[18] = test system: OVCAR-3
[19] = test system: SN12C
[20] = test system: ACHN
[21] = test system: SF-268
[22] = test system: MDA-N
[23] = test system: TK-10
[24] = test system: OVCAR-8
[25] = test system: HCT-116
[26] = test system: T47D
[27] = test system: BT-549
[28] = test system: SK-MEL-5
[29] = test system: COLO 205
[30] = test system: SK-MEL-2
[31] = test system: IGROV-1
[32] = test system: HL-60
[33] = test system: A549
[34] = test system: PC-3
[35] = test system: SW-620
[36] = test system: EKVX
[37] = test system: K562
[38] = test system: OVCAR-5
[39] = test system: LOX IMVI
[40] = test system: KM12
[41] = test system: OVCAR-4
[42] = test system: NCI-H226
[43] = test system: NCI-H460
[44] = test system: UACC-62
[45] = test system: SNB-75
[46] = test system: DU-145
[47] = test system: NCI-H23
[48] = test system: RXF 393
[49] = test system: HOP-62
[50] = test system: HCT-15
[51] = test system: CCRF-CEM
[52] = test system: SK-MEL-28
[53] = test system: Malme-3M
[54] = test system: SNB-19
[55] = test system: MDA-MB-231
[56] = test system: UACC-257
[57] = test system: M14
[58] = test system: UO-31

Cc1nn(C(=O)c2ccncc2)c2c1C(c1ccccc1)SC(=N)N2 (configuration not stated)
GI50 [1]: > 10 µM (inactive)
GI50 [2]: > 10 µM (inactive)
GI50 [3]: > 10 µM (inactive)
GI50 [4]: > 10 µM (inactive)
GI50 [5]: > 10 µM (inactive)
GI50 [6]: > 10 µM (inactive)
GI50 [7]: > 10 µM (inactive)
GI50 [8]: > 10 µM (inactive)
GI50 [9]: > 10 µM (inactive)
GI50 [10]: > 10 µM (inactive)
GI50 [11]: > 10 µM (inactive)
GI50 [12]: > 10 µM (inactive)
GI50 [13]: > 10 µM (inactive)
GI50 [14]: > 10 µM (inactive)
GI50 [15]: > 10 µM (inactive)
GI50 [16]: > 10 µM (inactive)
GI50 [17]: > 10 µM (inactive)
GI50 [18]: > 10 µM (inactive)
GI50 [19]: > 10 µM (inactive)
GI50 [20]: > 10 µM (inactive)
GI50 [21]: > 10 µM (inactive)
GI50 [22]: > 10 µM (inactive)
GI50 [23]: > 10 µM (inactive)
GI50 [24]: > 10 µM (inactive)
GI50 [25]: > 10 µM (inactive)
GI50 [26]: > 10 µM (inactive)
GI50 [27]: > 10 µM (inactive)
GI50 [28]: > 10 µM (inactive)
GI50 [29]: > 10 µM (inactive)
GI50 [30]: > 10 µM (inactive)
GI50 [31]: > 10 µM (inactive)
GI50 [32]: > 10 µM (inactive)
GI50 [33]: > 10 µM (inactive)
GI50 [34]: > 10 µM (inactive)
GI50 [35]: > 10 µM (inactive)
GI50 [36]: > 10 µM (inactive)
GI50 [37]: > 10 µM (inactive)
GI50 [38]: > 10 µM (inactive)
GI50 [39]: > 10 µM (inactive)
GI50 [40]: > 10 µM (inactive)
GI50 [41]: > 10 µM (inactive)
GI50 [42]: > 10 µM (inactive)
GI50 [43]: > 10 µM (inactive)
GI50 [44]: > 10 µM (inactive)
GI50 [45]: > 10 µM (inactive)
GI50 [46]: > 10 µM (inactive)
GI50 [47]: > 10 µM (inactive)
GI50 [48]: > 10 µM (inactive)
GI50 [49]: > 10 µM (inactive)
GI50 [50]: > 10 µM
GI50 [51]: > 10 µM (inactive)
GI50 [52]: > 10 µM (inactive)
GI50 [53]: > 10 µM (inactive)
GI50 [54]: > 10 µM (inactive)
GI50 [55]: > 10 µM (inactive)
GI50 [56]: > 10 µM (inactive)
GI50 [57]: > 10 µM (inactive)

CC1C(c2ccccc2)NC(c2ccccc2)CC1(N)C#N (configuration not stated)
GI50 [1]: > 100 µM (inactive)
GI50 [2]: > 100 µM (inactive)
GI50 [3]: > 100 µM (inactive)
GI50 [4]: > 100 µM (inactive)
GI50 [5]: 63.1 µM (inactive)
GI50 [6]: > 100 µM (inactive)
GI50 [7]: > 100 µM (inactive)
GI50 [8]: > 100 µM (inactive)
GI50 [9]: > 100 µM (inactive)
GI50 [10]: > 100 µM (inactive)
GI50 [11]: > 100 µM (inactive)
GI50 [12]: > 100 µM (inactive)
GI50 [14]: > 100 µM (inactive)
GI50 [15]: 95.1 µM (inactive)
GI50 [16]: > 100 µM (inactive)
GI50 [17]: > 100 µM (inactive)
GI50 [18]: > 100 µM (inactive)
GI50 [19]: > 100 µM (inactive)
GI50 [20]: > 100 µM (inactive)
GI50 [21]: > 100 µM (inactive)
GI50 [22]: > 100 µM (inactive)
GI50 [23]: > 100 µM (inactive)
GI50 [24]: > 100 µM (inactive)
GI50 [25]: > 100 µM (inactive)
GI50 [26]: > 100 µM (inactive)
GI50 [27]: > 100 µM (inactive)
GI50 [28]: > 100 µM (inactive)
GI50 [29]: 43.4 µM (inactive)
GI50 [31]: > 100 µM (inactive)
GI50 [32]: > 100 µM (inactive)
GI50 [33]: > 100 µM (inactive)
GI50 [34]: > 100 µM (inactive)
GI50 [35]: > 100 µM (inactive)
GI50 [36]: > 100 µM (inactive)
GI50 [37]: > 100 µM (inactive)
GI50 [38]: > 100 µM (inactive)
GI50 [39]: > 100 µM (inactive)
GI50 [40]: > 100 µM (inactive)
GI50 [41]: > 100 µM (inactive)
GI50 [42]: > 100 µM (inactive)
GI50 [43]: > 100 µM (inactive)
GI50 [44]: 90.6 µM (inactive)
GI50 [45]: > 100 µM (inactive)
GI50 [46]: > 100 µM (inactive)
GI50 [47]: > 100 µM (inactive)
GI50 [48]: > 100 µM (inactive)
GI50 [49]: > 100 µM (inactive)
GI50 [50]: > 100 µM
GI50 [58]: > 100 µM (inactive)
GI50 [51]: > 100 µM (inactive)
GI50 [52]: > 100 µM (inactive)
GI50 [54]: > 100 µM (inactive)
GI50 [55]: > 100 µM (inactive)
GI50 [56]: 48 µM (inactive)
GI50 [57]: 38.8 µM (inactive)
